Laboratory results from US20240025863A1, “SOS1 PROTEIN DEGRADERS, PHARMACEUTICAL COMPOSITIONS THEREOF, AND THEIR THERAPEUTIC APPLICATIONS” (BioTheryX, Inc., priority 2020, published 2024).

Experiments:
Format in all cases: cell-based
[1] = system: SW480 cells (G12V); experiment: Cell viability assay (CellTiter-Glo), SW480 cells; conditions: Homo sapiens, 72 h; SW480 cells, 3 days incubation, CellTiter-Glo luminescence; read-out: Inhibition of Cancerous Cells IC50 SW480 (G12V)
In short: (§1)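 Each cell line is treated with compound for 3 days at 37 °C under 5% CO2 in its own medium containing 2.5% FBS. ATP-based CellTiter-Glo luminescence, measured after 10 min shaking, serves as the viability signal relative to DMSO control.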

[2] = system: H358 cells (G12C); experiment: Cell viability assay (CellTiter-Glo), H358 cells; conditions: Homo sapiens, NCI-H358, 72 h; H358 cells, 3 days incubation, CellTiter-Glo luminescence; read-out: Inhibition of Cancerous Cells IC50 H358 (G12C)
In short: as §1

[3] = system: SW48 cells (wt); experiment: Cell viability assay (CellTiter-Glo), SW48 cells; conditions: Homo sapiens, 72 h; SW48 cells, 3 days incubation, CellTiter-Glo luminescence; read-out: Inhibition of Cancerous Cells IC50 SW48 (wt)
In short: as §1

[4] = system: AsPC-1 cells (G12D); experiment: Cell viability assay (CellTiter-Glo), AsPC-1 cells; conditions: Homo sapiens, ASPC1, 72 h, 3 days incubation, CellTiter-Glo luminescence, read-out: Inhibition of Cancerous Cells IC50 AsPC-1 (G12D)
Procedure: H358, H23, SW48, and AsPC-1 cells were cultured in RPMI 1640 media supplemented with 10% fetal bovine serum, streptomycin, and penicillin. Lovo and SW480 cells were cultured in DMEM media supplemented with 10% fetal bovine serum, streptomycin, and penicillin. The cell lines were plated in their respective medium supplemented with 2.5% fetal bovine serum, streptomycin, and penicillin. All cell lines were plated in white walled 96-well plates at 2,000 cells/well or 384-well plates at 500 cells/well, except Lovo, which were plated at 4,000 or 1,000 cells/well, respectively. The cells were incubated in DMSO (control) or a compound for 3 days at 37° C. under 5% CO2. A CELLTITER-GLO® reagent (100 μL) was then added to each well. After a 10 min incubation with shaking, luminescence was measured using an ENVISION® multimode plate reader.

[5] = system: Lovo cells (G13D); experiment: Cell viability assay (CellTiter-Glo), Lovo cells; conditions: Homo sapiens, 72 h; Lovo cells, 3 days incubation, CellTiter-Glo luminescence; read-out: Inhibition of Cancerous Cells IC50 Lovo (G13D)
In short: as §1

Structure (SMILES) | IC50 [1] | IC50 [2] | IC50 [3] | IC50 [4] | IC50 [5]
COc1cc2c(N[C@H](C)c3cccc(Br)c3)nc(C)nc2cc1OCCN1CCC(CN2CCC(c3cc(F)cc4c3CN(C3CCC(=O)NC3=O)C4=O)CC2)CC1 (stereo partly drawn) [Compound A65, 3-(4-(1-((1-(2-((4-(((R)-1-(3-Bromophenyl)ethyl)amino)-6-methoxy-2-methyl-quinazolin-7-yl)oxy)ethyl)piperidin-4-yl)methyl)piperidin-4-yl)-6-fluoro-1-oxoisoindolin-2-yl)-piperidine-2,6-dione] | 1100 nM | 1600 nM | 970 nM | 3300 nM | 1100 nM
CN[C@@H](C)C(=O)N[C@H](C(=O)N1C[C@@H](NC(=O)CCCCCCCCCCCCOc2cc3nc(C)nc(N[C@H](C)c4cccc(Br)c4)c3cc2OC)C[C@H]1C(=O)N[C@@H]1CCCc2ccccc21)C1CCCCC1 [Compound B10, (2S,4S)-4-(13-((4-(((R)-1-(3-Bromophenyl)ethyl)amino)-6-methoxy-2-methyl-quinazolin-7-yl)oxy)tridecanamido)-1-((S)-2-cyclohexyl-2-((S)-2-(methylamino)propanamido)-acetyl)-N—((R)-1,2,3,4-tetrahydronaphthalen-1-yl)pyrrolidine-2-carboxamide] | 720 nM | 1600 nM | 1300 nM | 1500 nM | 670 nM
COc1cc2c(N[C@H](C)c3cc(N)cc(C(F)(F)F)c3)nc(C)nc2cc1OCCCCCCCN1CCC(c2cc3c(cc2F)C(=O)N(C2CCC(=O)NC2=O)C3)CC1 (stereo partly drawn) [Compound A28, 3-(5-(1-(7-((4-(((R)-1-(3-Amino-5-(trifluoromethyl)phenyl)ethyl)amino)-6-methoxy-2-methylquinazolin-7-yl)oxy)heptyl)piperidin-4-yl)-6-fluoro-1-oxoisoindolin-2-yl)-piperidine-2,6-dione] | 500 nM | 1200 nM | 440 nM | 1100 nM | 550 nM
COc1cc2c(N[C@H](C)c3cccc(Br)c3)nc(C)nc2cc1OCCCCCCCCCNc1cccc2nc(C)n(C3CCC(=O)NC3=O)c(=O)c12 (stereo partly drawn) [Compound A45, 3-(5-((9-((4-(((R)-1-(3-Bromophenyl)ethyl)amino)-6-methoxy-2-methyl-quinazolin-7-yl)oxy)nonyl)amino)-2-methyl-4-oxoquinazolin-3(4H)-yl)piperidine-2,6-dione] | 900 nM | 2300 nM | 2000 nM | 5200 nM | 1200 nM
CN[C@@H](C)C(=O)N[C@H](C(=O)N1CCC[C@H]1c1nc(C(=O)c2cccc(OCCCCCCOc3cc4nc(C)nc(N[C@H](C)c5cccc(Br)c5)c4cc3OC)c2)cs1)C1CCCCC1 [Compound B1, (S)—N—((S)-2-((S)-2-(4-(3-((6-((4-(((R)-1-(3-bromophenyl)ethyl)amino)-6-methoxy-2-methylquinazolin-7-yl)oxy)hexyl)oxy)benzoyl)thiazol-2-yl)pyrrolidin-1-yl)-1-cyclohexyl-2-oxoethyl)-2-(methylamino)propanamide] | 980 nM | 2400 nM | 1100 nM | 3000 nM | 720 nM
CN[C@@H](C)C(=O)N[C@H](C(=O)N1C[C@@H](NC(=O)CCCCCCCCOc2cc3nc(C)nc(N[C@H](C)c4cccc(Br)c4)c3cc2OC)C[C@H]1C(=O)N[C@@H]1CCCc2ccccc21)C1CCCCC1 [Compound B12, (2S,4S)-4-(9-((4-(((R)-1-(3-Bromophenyl)ethyl)amino)-6-methoxy-2-methyl-quinazolin-7-yl)oxy)nonanamido)-1-((S)-2-cyclohexyl-2-((S)-2-(methylamino)propanamido)-acetyl)-N—((R)-1,2,3,4-tetrahydronaphthalen-1-yl)pyrrolidine-2-carboxamide] | 450 nM | 1100 nM | 460 nM | 2700 nM | 800 nM
